# pEC50: −log10 of the molar value.
# Legend:
# Format in all cases: cell-based
# [1] = test system: primary human fibroblasts derived from IPF patients (LL29 cells); experiment: Inhibition of fibrotic process, αSMA staining in TGF-β1 treated LL29 fibroblasts; conditions: Fibroblast, 96 h, TGF-β1 20 ng/mL, 4 days; for pEC50: % αSMA positive cells; for inhibition at 10 µM: given for EC50 >10 μM, read-out: percent inhibition at 10 μM
# Text: Representative compounds were screened using primary human fibroblasts (derived from IPF patients) treated with TGF-β1 to determine their ability to inhibit the fibrotic process.
# Primary human fibroblasts derived from IPF patients (LL29 cells) [^1Xiaoqiu Liu, et. al., “Fibrotic Lung Fibroblasts Show Blunted Inhibition by cAMP Due to Deficient cAMP Response Element-Binding Protein Phosphorylation”, Journal of Pharmacology and Experimental Therapeutics (2005), 315(2), 678-687; ^2Watts, K. L., et. al., “RhoA signaling modulates cyclin D1 expression in human lung fibroblasts; implications for idiopathic pulmonary fibrosis”, Respiratory Research (2006), 7(1), 88] were obtained from American Type Culture Collection (ATCC) and expanded in F12 medium supplemented with 15% Fetal Bovine Serum and Penicillin/Streptomycin.
# Each compound was dissolved in DMSO as a 10 mM stock and used to prepare compound source plates. Serial dilution (1:2, 11-point dose-response curves from […] to […]) and compound transfer was performed using the ECHO 550 (Labcyte, Sunnyvale, Calif.) into 384-well clear bottom assay plates (Greiner Bio-One) with appropriate DMSO backfill for a final DMSO concentration of 0.1%. LL29 cells are plated at 1,500 cells/well in 80 μL/well F12 medium supplemented with 1% Fetal Bovine Serum. One hour after addition of the cells, TGF-β1 (Peprotech; 20 ng/mL) was added to the plates to induce fibrosis (ref. 1 and 2 above). Wells treated with TGF-β1 and containing DMSO were used as controls. Cells were incubated at 37° C. and 5% CO2 for 4 days. Following incubation for 4 days, SYTOX green nucleic acid stain (Life Technologies [Thermo Fisher Scientific]) was added to the wells at a final concentration of 1 μM and incubated at room temperature for 30 min. Cells were then fixed using 4% formaldehyde (Electron Microscopy Sciences), washed 3 times with PBS followed by blocking and permeabilization using 3% Bovine Serum Albumin (BSA; Sigma) and 0.3% Triton X-100 (Sigma) in PBS. Cells were then stained with antibody specific to α-smooth muscle actin (αSMA; Abcam) (ref. 1 and 2 above) in 3% Bovine Serum Albumin (BSA; Sigma) and 0.3% Triton X-100 (Sigma) in PBS, and incubated overnight at 4° C. Cells were then washed 3 times with PBS, followed by incubation with Alexa Flor-647 conjugated secondary antibody (Life Technologies [Thermo Fisher Scientific]) and DAPI at room temperature for 1 hour. Cells were then washed 3 times with PBS and plates were sealed for imaging. αSMA staining was imaged by excitation at 630 nm and emission at 665 nm and quantified using the Compartmental Analysis program on the CellInsight CX5 (Thermo Scientific). Dead or apoptotic cells were excluded from analysis based on positive SYTOX green staining. % of total cells positive for αSMA were counted in each well and normalized to the average of 11 wells treated with TGF-β1 on the same plate using Dotmatics' Studies Software. The normalized averages (fold change over untreated) of 3 replicate wells for each compound concentration were used to create dose-responses curves and EC50 values were calculated using non-linear regression curve fit in the Dotmatics' Studies Software. For EC50 of >10 μM, the percent inhibition at 10 μM is provided.
# [2] = test system: Wnt activity (Sp5-Luc reporter, SW480 colon carcinoma cells); experiment: Wnt activity screening assay, Sp5-Luc reporter gene in SW480 cells; conditions: Homo sapiens; for inhibition at 10 µM: given for EC50 >10 μM, read-out: percent inhibition at 10 μM; for pEC50: overnight incubation
# Text: The screening assay for Wnt activity is described as follows. Reporter cell lines can be generated by stably transducing cancer cell lines (e.g., colon cancer) or primary cells (e.g., IEC-6 intestinal cells) with a lentiviral construct that includes a Wnt-responsive promoter driving expression of the firefly luciferase gene.
# SW480 colon carcinoma cells were transduced with a lentiviral vector expressing luciferase with a human Sp5 promoter consisting of a sequence of eight TCF/LEF binding sites. SW480 cells stably expressing the Sp5-Luc reporter gene and a hygromycin resistance gene were selected by treatment with 150 μg/mL of hygromycin for 7 days. These stably transduced SW480 cells were expanded in cell culture and used for all further screening activities. Each compound was dissolved in DMSO as a 10 mM stock and used to prepare compound source plates. Serial dilution (1:3, 10-point dose-response curves starting from 10 μM) and compound transfer was performed using the ECHO 550 (Labcyte, Sunnyvale, Calif.) into 384-well white solid bottom assay plates (Greiner Bio-One) with appropriate DMSO backfill for a final DMSO concentration of 0.1%. For Sp5-Luc reporter gene assays, the cells were plated at 4,000 cells/well in 384-well plates with medium containing 1% fetal bovine serum and incubated overnight at 37° C. and 5% CO2. Following incubation, 20 μl of BrightGlo luminescence reagent (Promega) was added to each well of the 384-well assay plates. The plates were placed on an orbital shaker for 2 min and then luminescence was quantified using the Envision (Perkin Elmer) plate reader. Readings were normalized to DMSO only treated cells, and normalized activities were utilized for EC50 calculations using the dose-response log (inhibitor) vs. response—variable slope (four parameters) nonlinear regression feature available in GraphPad Prism 5.0 (or Dotmatics). For EC50 of >10 μM, the percent inhibition at 10 μM is provided.
# SW480 colon cancer cells = experiment: Cell viability assay (CellTiter-Blue); conditions: Homo sapiens, 96 h, four days; for inhibition at 10 µM: given for EC50 >10 μM, read-out: percent inhibition at 10 μM
# Method: Representative compounds were screened using the following assay procedure to assess the effect on cell viability as described below.
# Each compound was dissolved in DMSO as a 10 mM stock and used to prepare compound source plates. Serial dilution (1:3, 8-point dose-response curves from 10 μM to 0.0045 μM) and compound transfer was performed using the ECHO 550 (Labcyte, Sunnyvale, Calif.) into 96-well clear bottom, black-walled plates (Corning-Costar).
# Approximately 2×10^3 SW480 colon cancer cells were seeded into each well and allowed to incubate in the presence or absence of compound for four days at 37° C./5% CO2. Eight replicates of DMSO-treated cells served as controls and cells treated with compound were performed in duplicate.
# After incubation, 20 μL of CellTiter-Blue (Promega) was added to each well allowed to incubate for approximately 3 hours. This reagent was a buffered solution which contains resazurin, metabolically active cells were able to reduce rezarurin (blue) into resorufin (pink) which was highly fluorescent. This measured fluorescence was used as a readout for cell viability.
# After incubation, the plates were read at Ex 560 nm Em 590 nm (Cytation 3, BioTek). Dose-response curves were generated and EC50 concentration values were calculated using non-linear regression curve fit in the GraphPad Prism (San Diego, Calif.) or Dotmatics' Studies Software (Bishops Stortford, UK). For EC50 of >10 μM, the percent inhibition at 10 μM is provided.
Structure (SMILES),pEC50 [2],pEC50 (SW480 colon cancer cells),pEC50 [1],inhibition at 10 µM [2] [%],inhibition at 10 µM (SW480 colon cancer cells) [%],inhibition at 10 µM [1] [%]
"Fc1ccc(-c2ccnc3[nH]c(-c4n[nH]c5ncc(-c6cncc(CN7CCC(F)(F)C7)c6)cc45)cc23)cc1 [Compound 54, 5-(5-((3,3-Difluoropyrrolidin-1-yl)methyl)pyridin-3-yl)-3-(4-(4-fluorophenyl)-1H-pyrrolo[2,3-b]pyridin-2-yl)-1H-pyrazolo[3,4-b]pyridine]",< 5.00,< 5.00,5.31,8.7,6.9,
"Fc1ccc(-c2ccnc3[nH]c(-c4n[nH]c5ncc(-c6cncnc6)cc45)cc23)cc1 [Compound 55, 3-(4-(4-Fluorophenyl)-1H-pyrrolo[2,3-b]pyridin-2-yl)-5-(pyrimidin-5-yl)-1H-pyrazolo[3,4-b]pyridine]",< 5.00,< 5.00,< 5.00,13.6,3.5,1.8
"CCNCc1cncc(-c2cnc3[nH]nc(-c4cc5c(-c6ccccc6F)ccnc5[nH]4)c3c2)c1 [Compound 62, N-((5-(3-(4-(2-Fluorophenyl)-1H-pyrrolo[2,3-b]pyridin-2-yl)-1H-pyrazolo [3,4-b]pyridin-5-yl)pyridin-3-yl)methyl)ethanamine]",< 5.00,< 5.00,< 5.00,0,38.2,0
"CN(C)c1cncc(-c2cnc3[nH]nc(-c4cc5c(-c6ccccc6F)ccnc5[nH]4)c3c2)c1 [Compound 63, 5-(3-(4-(2-Fluorophenyl)-1H-pyrrolo[2,3-b]pyridin-2-yl)-1H-pyrazolo[3,4-b]pyridin-5-yl)-N,N-dimethylpyridin-3-amine]",< 5.00,< 5.00,< 5.00,4,16.1,0
"CC(C)(C)CC(=O)Nc1cncc(-c2cnc3[nH]nc(-c4cc5c(-c6ccccc6F)ccnc5[nH]4)c3c2)c1 [Compound 72, N-(5-(3-(4-(2-Fluorophenyl)-1H-pyrrolo[2,3-b]pyridin-2-yl)-1H-pyrazolo [3,4-b]pyridin-5-yl)pyridin-3-yl)-3,3-dimethylbutanamide]",< 5.00,< 5.00,6.12,16,14.7,
"CCCCC(=O)Nc1cncc(-c2cnc3[nH]nc(-c4cc5c(-c6ccccc6F)ccnc5[nH]4)c3c2)c1 [Compound 75, N-(5-(3-(4-(2-Fluorophenyl)-1H-pyrrolo[2,3-b]pyridin-2-yl)-1H-pyrazolo [3,4-b]pyridin-5-yl)pyridin-3-yl)pentanamide]",< 5.00,< 5.00,< 5.00,2.1,23.6,0

# Further lines, with some results ahead:
pEC50 [2],pEC50 (SW480 colon cancer cells),Structure (SMILES),pEC50 [1],inhibition at 10 µM [2] [%],inhibition at 10 µM (SW480 colon cancer cells) [%],inhibition at 10 µM [1] [%]
< 5.00,< 5.00,"Nc1cncc(-c2cnc3[nH]nc(-c4cc5c(-c6ccccc6F)ccnc5[nH]4)c3c2)c1 [Compound 59, 5-(3-(4-(2-Fluorophenyl)-1H-pyrrolo[2,3-b]pyridin-2-yl)-1H-pyrazolo[3,4-b]pyridin-5-yl)pyridin-3-amine]",< 5.00,48.3,20.1,0
< 5.00,< 5.00,"CC(C)C(=O)Nc1cncc(-c2cnc3[nH]nc(-c4cc5c(-c6ccccc6F)ccnc5[nH]4)c3c2)c1 [Compound 65, N-(5-(3-(4-(2-Fluorophenyl)-1H-pyrrolo[2,3-b]pyridin-2-yl)-1H-pyrazolo [3,4-b]pyridin-5-yl)pyridin-3-yl)isobutyramide]",6.09,30.8,32.1,
< 5.00,< 5.00,"CC(C)Nc1cncc(-c2cnc3[nH]nc(-c4cc5c(-c6ccccc6F)ccnc5[nH]4)c3c2)c1 [Compound 68, 5-(3-(4-(2-Fluorophenyl)-1H-pyrrolo[2,3-b]pyridin-2-yl)-1H-pyrazolo[3,4-b]pyridin-5-yl)-N-isopropylpyridin-3-amine]",5.07,4.6,1,
